Source: patent publication US8236488B2, “Method of screening for therapeutic compounds for vascular disorders and hypertension based on URAT1 activity modulation” (Human Cell Systems, Inc., priority 2003, dated 2012)

Tests used:
Assay type in all cases: cell-based
rat VSMCs [1] = test: 14C-urate uptake into rat VSMCs in the presence of inhibitors or other organic anions; settings: 20 μM 14C-urate, 37° C., 5 minutes; for uric acid uptake into VSMCs in the presence of another organic anion: 100, 250 or 500 μM PAH or lactate; for uric acid uptake into VSMCs in the presence of organic anion transporter inhibitor: 0.1, 0.5 or 1 mM probenecid or 0.5, 1 or 10 μM benzbromarone
Experimental: Further, the present inventors examined a mechanism of urate uptake under physiologic conditions (polarized conditions). First, the present inventors examined whether ^14C-urate competed with cold urate for uptake. The ^14C-urate uptake level by rat VSMCs was measured at 37° C. for 5 minutes using an uptake solution containing 20 μM ^14C-urate and 0, 0.1, 1, 5, 10, or 50 mg/dL cold urate. Each of the measurement results is the average±standard deviation of three wells. […] In FIG. 2, a vertical axis represents the ratio (%) of ^14C-urate uptake level determined when the ^14C-urate uptake level in the absence of cold urate is defined as 100%. A horizontal axis represents the concentration of cold urate (mg/dL).
The ^14C-urate uptake level was measured at 37° C. for 5 minutes using an uptake solution containing 20 μM ^14C-urate and 0, 0.1, 0.5 or 1 mM probenecid or 0, 0.5, 1 or 10 μM benzbromarone. Each of the measurement results is the average±standard deviation of three wells. […] In FIGS. 3 and 4, a vertical axis represents the ratio (%) of ^14C-urate uptake level determined when the ^14C-urate uptake level in the absence of probenecid (FIG. 3) or benzbromarone (FIG. 4) is defined as 100%. A horizontal axis in FIG. 3 represents the concentration of probenecid (mM), and a horizontal axis in FIG. 4 represents the concentration of benzbromarone (μM). An asterisk (*) in the FIGS. 3 and 4 indicate that there is a significant difference (p<0.05)
Further, another test was carried out to examine whether ^14C-urate competed with an organic anion such as para-amino hippurate (PAH) or lactate for uptake. The ^14C-urate uptake level by rat VSMCs was measured at 37° C. for 5 minutes using an uptake solution containing 20 μM ^14C-urate and 0, 100, 250 or 500 μM PAH or 0, 100, 250 or 500 lactate. In addition, the ^14C-urate uptake level by rat VSMCs was also measured using an uptake solution containing 20 μM ^14C-urate and 250 μM uric acid (UA). Each of the measurement results is the average±standard deviation of three wells. […] In FIGS. 5 and 6, a vertical axis represents the ratio (%) of ^14C-urate uptake level determined when the ^14C-urate uptake level in the absence of PAH (FIG. 5) or lactate (FIG. 6) is defined as 100%. A horizontal axis in FIG. 5 represents the concentration of PAH (μM), and a horizontal axis in FIG. 6 represents the concentration of lactate (μM). An asterisk (*) in FIGS. 5 and 6 indicate that there is a significant difference (p<0.05).
(§1) In the following experiments, vascular smooth muscle cells (VSMCs) derived from rat aorta were used (see Zhang S, Yang Y, et al., Circulation., 2003; 107, 1539-44). These cells were cultured in Dulbecco' s Modified Eagle Medium (DMEM, GIBCO) containing 10% fetal bovine serum (FBS), 1% glutamine, and 1% penicillin/streptomycin solution (100 units/ml penicillin, 100 μg/mL streptomycin; GIBCO). The cultured VSMCs were transferred into wells of a 35-mm six-well culture plate (NUNC), and were then maintained at 37° C. in an atmosphere of 5% carbon dioxide and 95% air in a humidified tissue culture incubator. The culture medium was replaced every 2 days. The VSMCs used in the experiments were 5th to 12th generation cells.
The VSMCs (4×10^5 cells) were transferred into wells of a six-well culture plate together with 10% FBS-DMEM. After a lapse of one day, the VSMCs were placed in DMEM medium without serum and incubated over night to stop growth. In all the experiments, cells and all the solutions used were maintained at 37° C. […]

rat VSMCs [2] = test: VSMC proliferation test (3H-thymidine uptake); settings: 24 hour incubation; for effect of inhibitor alone on cell proliferation: absence of uric acid
Experimental: Next, the present inventors examined whether an inhibitor of organic anion transportation inhibited the response of VSMC proliferation. Proliferation of VSMCs after 24 hour incubation was determined by measuring the ^3H-thymidine uptake level. This test was carried out for cases where no uric acid (UA) was present, 3 mg/dL uric acid (UA) was present, 3 mg/dL uric acid and 0.1, 0.5 or 1 mM probenecid were present, and 3 mg/dL uric acid (UA) and 0.5, 1 or 10 μM benzbromarone were present. In addition, the test was also carried out for cases where probenecid was present alone and benzbromarone was present alone. Each of the measurement results is the average±standard deviation of three wells (CPM). FIGS. 7 and 8 show the result of the test carried out to examine the effect of probenecid (FIG. 7) or benzbromarone (FIG. 8) on inhibition of response of VSMC proliferation. In FIGS. 7 and 8, a vertical axis represents the ^3H-thymidine uptake (CPM) level, a horizontal axis represents the concentration of uric acid or the concentration of an inhibitor.
as §1
The VSMCs (4×10^5 cells) were transferred into wells of a six-well culture plate together with 10% FBS-DMEM, and were cultured for 24 hours. Then, the cells were starved for 48 hours in 0.5% FBS-DMEM, and the resting VSMCs were stimulated with 3 mg/dL uric acid containing 1 μCi ^3H-thymidine to detect DNA synthesis. Further, 2 μCi/mL ^3H-thymidine was added to each well 2 hours before harvesting the cells. The cells were washed with ice-cooled PBS three times, and were lysed in 1 mL of 1N NaOH. 0.5 mL of the cell lysate was added to 5 mL of scintillation fluid to measure the ^3H-thymidine uptake level by the cells. The ^3H-thymidine uptake level by the cells was expressed as CMP/well and counted in a liquid scintillation counter. Some experiments were carried out in the presence of different concentrations of probenecid or benzbromarone (organic anion transporter inhibitor).

MCP-1 = test: ELISA of MCP-1 protein secreted into culture supernatant of rat VSMCs; settings: 24 hours
Experimental: The present inventors have already reported that uric acid induces the production of MCP-1 (see Non-Patent Document 8). The production of MCP-1 in VSMC was examined. Rat VSMCs were cultured for 24 hours, and the amount of MCP-1 secreted into culture supernatant was measured by ELISA. A test was carried out for cases where 3 mg/dL uric acid (UA) was present, 3 mg/dL uric acid and 1 mM probenecid were present, and probenecid was present alone. In FIG. 10, a vertical axis represents the amount of MCP-1 (pg/1000 cells), and a horizontal axis represents cases where nothing was present (No UA), 3 mg/dL uric acid was present (UA), 3 mg/dL uric acid and 1 mM probenecid were present (UA+Prob), and probenecid was present alone (Prob), and two asterisks (**) indicate that there is a significant difference (p<0.05) when compared to a control. […] The VSMCs (5×10^4 cells/well) were placed in wells of a 24-well plate, and serum was deprived after reaching 70% confluence. Then, media with or without 3 mg/dL uric acid was added and the cells were cultured for 24 hours in the presence or absence of 1 mM probenecid. The amount of MCP-1 protein contained in supernatant was measured by ELISA (OptEIA MCP-1 set, BD Pharmingen), and corrected for cell number. Each experiment was repeated three times.

rat VSMCs [3] = test: Urate uptake into VSMCs under polarized and depolarized conditions; settings: 20 μM 14C-urate
Experimental: Urate uptake into vascular smooth muscle cells (VSMCs) was examined under polarized and depolarized conditions. The ^14C-urate uptake level by VSMCs was measured using an uptake solution containing 20 μM ^14C-urate under polarized conditions (HEPES-physiological saline solution) or depolarized conditions (100 mM KCl uptake solution) for 120 minutes. The ^14C-urate uptake level was measured every one minute. Each of the measurement results is the average±standard deviation of three wells. In FIG. 1, a vertical axis represents the ^14C-urate uptake (CPM) level, a horizontal axis represents time (min), the symbol “□” represents a case where urate uptake was examined under depolarized conditions, and the symbol “♦” represents a case where urate uptake was examined under polarized conditions. […] It can be known that urate is rapidly taken up by rat VSMCs, that under depolarized conditions, urate uptake reaches steady state within about 15 minutes, and that under polarized conditions, urate uptake reaches steady state within about 30 minutes.
Further, in still another experiment, urate uptake was examined under polarized or depolarized conditions to determine whether urate uptake was voltage sensitive. The conditions for the experiment were the same as described above except that a culture solution for polarized conditions and a culture solution for depolarized conditions were different. More specifically, after 12 hour starvation, the serum free medium was removed and replaced with 0.45 mL of HEPES-physiological saline solution (PSS) containing 140 mM NaCl, 4 mM KCl, 2 mMCaCl2, 1 mM MgCl2, 5 mM glucose, and 16 mM HEPES-tris (pH 7.4) for polarized conditions, or 100 mM-KCl uptake solution containing 44 mM NaCl, 100 mM KCl, 2 mM CaCl2, 1 mM MgCl2, 5 mM glucose, and 16 mM HEPES-tris (pH 7.4) for depolarized conditions.

Nc1ccc(C(=O)NCC(=O)O)cc1 [PAH, para-amino hippurate]
uric acid uptake into VSMCs in the presence of another organic anion (rat VSMCs [1]): inhibited

CCc1oc2ccccc2c1C(=O)c1cc(Br)c(O)c(Br)c1 [benzbromarone]
uric acid uptake into VSMCs in the presence of organic anion transporter inhibitor (rat VSMCs [1]): concentration-dependently reduced | effect of inhibitor alone on cell proliferation (rat VSMCs [2]): The same was observed

CC(O)C(=O)O (centres unmarked) [lactate]
uric acid uptake into VSMCs in the presence of another organic anion (rat VSMCs [1]): more weakly inhibited

CCCN(CCC)S(=O)(=O)c1ccc(C(=O)O)cc1 [probenecid]
uric acid uptake into VSMCs in the presence of organic anion transporter inhibitor (rat VSMCs [1]): concentration-dependently reduced | uric acid-induced increase in the 3H-thymidine uptake level (VSMC proliferation) (rat VSMCs [2]; 3 mg/dL uric acid plus inhibitor): concentration-dependently inhibited | effect of inhibitor alone on cell proliferation (rat VSMCs [2]): little effect on cell proliferation | increase in uric acid-induced production of MCP-1 (MCP-1; 3 mg/dL uric acid and 1 mM probenecid): inhibited | production of MCP-1 with inhibitor alone (MCP-1; probenecid alone, no uric acid): not inhibited

O=c1[nH]c(=O)c2[nH]c(=O)[nH]c2[nH]1 [uric acid]
competition between 14C-urate and cold urate for uptake by rat VSMCs (rat VSMCs [1]; 0.1, 1, 5, 10 or 50 mg/dL cold urate): more effectively competed | 3H-thymidine uptake level by rat VSMCs (rat VSMCs [2]; 3 mg/dL uric acid): increased | urate uptake level, depolarized versus polarized conditions (rat VSMCs [3]; up to 120 minutes): larger under depolarized conditions than under polarized conditions | time until urate uptake reaches steady state (rat VSMCs [3]; depolarized conditions (100 mM KCl uptake solution)): ≤ 15 min | time until urate uptake reaches steady state (rat VSMCs [3]; polarized conditions (HEPES-physiological saline solution)): ≤ 30 min
